Drawing on patent US9771369B2, “Compounds and methods for kinase modulation, and indications therefor” (Plexxikon Inc., priority 2014, dated 2017), this text covers IC50 for 11 compounds.

A word on the IC50: it is the concentration needed to halve the response being measured. Lower therefore signals inhibition by little substance.

Sequence of c-Kit kinase (P10721 26-976): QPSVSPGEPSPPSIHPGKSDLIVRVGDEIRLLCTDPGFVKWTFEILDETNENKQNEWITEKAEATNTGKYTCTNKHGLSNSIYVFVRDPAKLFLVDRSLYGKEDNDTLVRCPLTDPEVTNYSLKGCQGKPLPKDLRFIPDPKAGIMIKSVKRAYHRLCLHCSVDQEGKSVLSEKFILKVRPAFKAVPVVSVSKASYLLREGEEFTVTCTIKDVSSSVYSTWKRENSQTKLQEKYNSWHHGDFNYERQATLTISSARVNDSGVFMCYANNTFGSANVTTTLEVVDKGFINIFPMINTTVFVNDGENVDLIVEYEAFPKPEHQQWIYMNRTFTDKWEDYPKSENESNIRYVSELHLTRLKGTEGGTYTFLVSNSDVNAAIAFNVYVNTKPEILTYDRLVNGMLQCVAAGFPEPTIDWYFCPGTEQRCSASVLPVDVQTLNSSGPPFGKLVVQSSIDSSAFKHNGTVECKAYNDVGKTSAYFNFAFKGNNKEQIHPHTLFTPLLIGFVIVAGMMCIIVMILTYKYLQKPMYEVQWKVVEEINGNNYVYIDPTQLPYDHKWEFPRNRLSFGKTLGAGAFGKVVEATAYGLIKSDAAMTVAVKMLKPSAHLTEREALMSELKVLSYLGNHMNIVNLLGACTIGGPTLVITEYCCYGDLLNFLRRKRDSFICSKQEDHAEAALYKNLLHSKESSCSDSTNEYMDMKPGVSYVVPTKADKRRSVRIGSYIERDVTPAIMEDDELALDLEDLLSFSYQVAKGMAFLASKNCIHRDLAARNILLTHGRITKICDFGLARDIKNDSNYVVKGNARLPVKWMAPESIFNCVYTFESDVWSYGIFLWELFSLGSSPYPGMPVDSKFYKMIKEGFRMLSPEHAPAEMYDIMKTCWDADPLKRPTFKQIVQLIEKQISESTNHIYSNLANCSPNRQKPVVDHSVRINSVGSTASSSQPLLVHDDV

The assay addresses c-Kit kinase (Homo sapiens (Human), UniProt P10721). The assay can be described thus: c-Kit biochemical assay (AlphaScreen kinase activity). The method, boiled down: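 IC50 values come from 8-point, 1:3 compound titrations measuring inhibition of peptide phosphorylation by c-Kit (commercial or His-tagged E. coli-expressed) over 1 h at room temperature, read by AlphaScreen PY30/streptavidin beads. Low-ATP version: 10 μM ATP, 100 nM biotin-(E4Y)3; high-ATP version: 100 μM ATP, 30 nM biotin-(E4Y)10.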
(In Alpha technology, singlet oxygen from a donor bead excites a nearby acceptor bead.)
Take `COc1ccc(-c2[nH]c(C3(C)CCN(c4ncnc5[nH]c(-c6ccc(C(=O)O)cc6)cc45)CC3)nc2C)cc1F` [P-3199, 4-[4-[4-[5-(3-fluoro-4-methoxy-phenyl)-4-methyl-1H-imidazol-2-yl]-4-methyl-1-piperidyl]-7H-pyrrolo[2,3-d]pyrimidin-6-yl]benzoic acid]: the IC50 fell in the range of 0.0001 to 1 µM.
In the case of `Cc1nc(C2(C)CCN(c3ncnc4[nH]nc(C)c34)CC2)[nH]c1-c1ccc(Cl)cc1` [P-3200, 4-[4-[5-(4-chlorophenyl)-4-methyl-1H-imidazol-2-yl]-4-methyl-1-piperidyl]-3-methyl-1H-pyrazolo[3,4-d]pyrimidine], the IC50 lay within 1 to 10 µM.
With `Cc1nc(C2(C)CCN(c3ncnc4[nH]nc(C)c34)CC2)[nH]c1-c1cccc(OC(F)F)c1` [P-3201, 4-[4-[5-[3-(difluoromethoxy)phenyl]-4-methyl-1H-imidazol-2-yl]-4-methyl-1-piperidyl]-3-methyl-1H-pyrazolo[3,4-d]pyrimidine], the IC50 is 1 to 10 µM.
As for `COc1ccc(-c2[nH]c(C3(C)CCN(c4ncnc5[nH]nc(C)c45)CC3)nc2C)cc1F` [P-3202, 4-[4-[5-(3-fluoro-4-methoxy-phenyl)-4-methyl-1H-imidazol-2-yl]-4-methyl-1-piperidyl]-3-methyl-1H-pyrazolo[3,4-d]pyrimidine], the figure is 1 to 10 µM; as for `Cc1nc(C2(C)CCN(c3ncnc4[nH]nc(C)c34)CC2)[nH]c1-c1ccc2c(c1)OC(F)(F)O2` [P-3203, 4-[4-[5-(2,2-difluoro-1,3-benzodioxol-5-yl)-4-methyl-1H-imidazol-2-yl]-4-methyl-1-piperidyl]-3-methyl-1H-pyrazolo[3,4-d]pyrimidine], 1 to 10 µM.
With `Fc1ccc(-c2cc3c(N4CCC(c5nnc(-c6ccc(F)cc6)[nH]5)CC4)ncnc3[nH]2)cc1` [P-3206, 6-(4-fluorophenyl)-4-[4-[5-(4-fluorophenyl)-4H-1,2,4-triazol-3-yl]-1-piperidyl]-7H-pyrrolo[2,3-d]pyrimidine], the IC50 lay in the range of 1 to 10 µM.
`COc1cc(-c2cc3c(N4CCC(c5nnc(-c6cccc(OC(F)F)c6)[nH]5)CC4)ncnc3[nH]2)ccn1` [P-3207, 4-[4-[5-[3-(difluoromethoxy)phenyl]-4H-1,2,4-triazol-3-yl]-1-piperidyl]-6-(2-methoxy-4-pyridyl)-7H-pyrrolo[2,3-d]pyrimidine] came in with an IC50 of 1 to 10 µM.
As for `CCOc1ccc(-c2[nH]c(C3(C)CCN(c4ncnc5[nH]c(-c6ccc(OC)nc6)cc45)CC3)nc2C)cc1F` [P-3209, 4-[4-[5-(4-ethoxy-3-fluoro-phenyl)-4-methyl-1H-imidazol-2-yl]-4-methyl-1-piperidyl]-6-(6-methoxy-3-pyridyl)-7H-pyrrolo[2,3-d]pyrimidine], the figure is 0.0001 to 1 µM; as for `CCOc1ccc(-c2[nH]c(C3(C)CCN(c4ncnc5[nH]c(-c6cnn(C(F)F)c6)cc45)CC3)nc2C)cc1F` [P-3210, 6-[1-(difluoromethyl)pyrazol-4-yl]-4-[4-[5-(4-ethoxy-3-fluoro-phenyl)-4-methyl-1H-imidazol-2-yl]-4-methyl-1-piperidyl]-7H-pyrrolo[2,3-d]pyrimidine], 0.0001 to 1 µM; as for `COc1ccc(-c2[nH]c(C3(C)CCN(c4ncnc5[nH]c(-c6ccc(C#N)nc6)cc45)CC3)nc2C)cc1F` [P-3211, 5-[4-[4-[5-(3-fluoro-4-methoxy-phenyl)-4-methyl-1H-imidazol-2-yl]-4-methyl-1-piperidyl]-7H-pyrrolo[2,3-d]pyrimidin-6-yl]pyridine-2-carbonitrile], 1 to 10 µM.
`COc1ccc(-c2[nH]c(C3(C)CCN(c4ncnc5[nH]c(-c6ccc(C(N)=O)cc6)cc45)CC3)nc2C)cc1F` [P-3212, 4-[4-[4-[5-(3-fluoro-4-methoxy-phenyl)-4-methyl-1H-imidazol-2-yl]-4-methyl-1-piperidyl]-7H-pyrrolo[2,3-d]pyrimidin-6-yl]benzamide] gave an IC50 of 0.0001 to 1 µM.
